Reference: patent US5578601A, “Nonpeptide bradykinin antagonists” (Sterling Winthrop Inc., priority 1995, dated 1996)
Structures can show the parent of a compound that is named as a salt. Where two headings read alike, the source gives them in different places.

What was measured:
bradykinin B2 receptor = molecular target: T1, bradykinin B2 receptor (Homo sapiens, UniProt P30411); experiment: [3H]-bradykinin radioligand competitive binding to human IMR-90 fetal lung fibroblasts (bradykinin B2 receptor); conditions: human IMR-90 cells, 2 h, 4° C, pH 7.4, mean values from 2-3 experiments
T1 construct: These cells contain the bradykinin B2 receptor as previously described; endogenous in cells; host or cells: human IMR-90 fetal lung fibroblasts
T1 sequence (P30411 1-391): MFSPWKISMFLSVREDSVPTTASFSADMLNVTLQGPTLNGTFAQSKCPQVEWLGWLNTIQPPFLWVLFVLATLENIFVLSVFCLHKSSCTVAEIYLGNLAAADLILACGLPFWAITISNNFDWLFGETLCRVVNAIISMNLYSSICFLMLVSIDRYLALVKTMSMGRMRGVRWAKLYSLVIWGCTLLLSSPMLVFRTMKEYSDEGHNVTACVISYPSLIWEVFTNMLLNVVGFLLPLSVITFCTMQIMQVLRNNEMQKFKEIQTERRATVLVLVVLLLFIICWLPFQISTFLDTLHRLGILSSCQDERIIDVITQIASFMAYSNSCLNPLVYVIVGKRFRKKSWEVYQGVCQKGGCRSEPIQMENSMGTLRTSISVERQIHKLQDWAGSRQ
Description: The receptor binding affinity (KI) of the compounds of the present invention was determined in [^3 H]-bradykinin radioligand binding studies using human IMR-90 fetal lung fibroblasts. […] Briefly stated, harvested IMR-90 cells were resuspended to the desired cell concentration in ice cold buffer containing phosphate buffered saline (PBS) pH-7.4, sodium azide (0.02%), 0.1% BSA, PMSF (1 mM), DTT (1 mM), and captopril (1 mM). For competitive inhibition binding studies, cells were incubated with bradykinin (1-2 nM) in the absence or presence of increasing concentrations of competing compound. All assay mixtures were incubated for 2 hours at 4° C. The binding assays were terminated by filtration through Whatman GF/B filters on a Brandel Cell Harvester and the filters were washed with 3×1 ml aliquots of ice cold PBS containing 0.1% BSA. All filters were presoaked in 0.1% polyethylenimine to decrease nonspecific filter binding.

nociception/hyperalgesia = conditions: several different animal models of nociception/hyperalgesia; cited from earlier work
rhinovirus infection = conditions: intranasal, experimentally induced infection; cited from earlier work
[1] = system: inflammation and hyperalgesia; conditions: intraplantar carrageenan; cited from earlier work

| Compound | Ki (bradykinin B2 receptor; read-out: IMR 90 Ki) | also measured |
| --- | --- | --- |
| CCCC[P+](CCCC)(CCCC)Cc1ccc(NC(=O)C(Cc2ccc3ccccc3c2)N=C(NCCC)NCCCc2ccccc2)cc1 (stereo not shown) [Example 10, Phosphonium, tributyl[[4-[[3-(2-naphthalenyl)-1-oxo-2-[[[(3-phenylpropyl)amino](propylamino)methylene]amino]propyl]amino]phenyl]methyl]-, chloride, monohydrochloride] | 1950 nM | – |
| O=C(NC1CN2CCC1CC2)C(Cc1ccc(Cl)cc1)NC(=NC1CCCCC1)NC1CCCCC1 (stereo not drawn) [Example 22, 4-chlorophenylpropanamide, N-1-azabicyclo[2.2.2]oct-3-yl-α-[[bis(cyclohexylamino)methylene]amino]-, dihydrochloride] | – | Ki (bradykinin B2 receptor; IMR 90 Ki): 2900 nM |
| O=C(Nc1cccc2cnccc12)C(Cc1ccc2ccccc2c1)N=C(NC1CCCCC1)NC1CCCCC1 (stereo not drawn) [Example 24, 2-Naphthalenepropanamide, α-[[bis(cyclohexylamino)methylene]amino]-N-5-isoquinolinyl-, monohydrochloride] | 2540 nM | – |
| O=C(NCc1nc2ccccc2[nH]1)C(Cc1ccc2ccccc2c1)N=C(NC1CCCCC1)NC1CCCCC1 (stereo not drawn) [Example 25, 2-Naphthalenepropanamide, N-(1H-benzimidazol-2-ylmethyl)-α-[[bis(cyclohexylamino)methylene]amino]-, monohydrochloride] | 5300 nM | – |
| NPC-567 | – | antinociceptive activity (nociception/hyperalgesia): antinociceptive; beneficial effects on the course of rhinovirus infection (rhinovirus infection): failed to demonstrate beneficial effects; antagonism of inflammation and hyperalgesia [1]: antagonized |

More lines, main results first:

| Ki (bradykinin B2 receptor; read-out: IMR 90 Ki) | Compound | also measured |
| --- | --- | --- |
| 5800 nM | CCCC[P+](CCCC)(CCCC)Cc1ccc(NC(=O)C(Cc2ccc(C(=O)c3ccccc3)cc2)NC(=NC2CCCCC2)NC2CCCCC2)cc1 (stereo not shown) [Example 3, Phosphonium, [[4-[[3-(4-benzoylphenyl)-2-[[bis(cyclohexylamino)methylene]amino]-1-oxopropyl]amino]phenyl]methyl]tributyl-, chloride, monohydrochloride] | – |
| 430 nM | CCCC[P+](CCCC)(CCCC)Cc1ccc(NC(=O)C(Cc2csc3ccccc23)N=C(NC2CCCCC2)NC2CCCCC2)cc1 (stereo not shown) [Example 13, Phosphonium, [[4-[[3-benzo[b]thien-3-yl-2-[[bis(cyclohexylamino)methylene]amino]-1-oxopropyl]amino]phenyl]methyl]tributyl-, chloride, monohydrochloride] | – |
| 3000 nM | CCCC[P+](CCCC)(CCCC)Cc1cccc(NC(=O)C(Cc2ccc3ccccc3c2)N=C(NC2CCCCC2)NC2CCCCC2)c1 (stereo not shown) [Example 17, Phosphonium, [[3-[[2-[[bis(cyclohexylamino)methylene]amino]-3-(2-naphthalenyl)-1-oxopropyl]amino]phenyl]methyl]tributyl-, chloride, monohydrochloride] | – |
